# Reference: PubChem BioAssay AID228 (DTP/NCI, 2004)
# Values joined by “and” are separate entries in the source; they are usually repeats but may differ in a detail not shown here. Equal entries are not always repeated. Records with an inconclusive call do not appear.
# System: BDF1 mice, Friend leukemia sc, tumor weight T/C
# Experiment: NCI In Vivo Anticancer Drug Screen. Data for tumor model Friend Virus Leukemia (Solid) (subcutaneous) in B6D2F1 (BDF1) mice
# Details: endpoint: mean tumor weight, higher = larger tumour
# Method: The antitumor activity of compounds was measured in mice bearing transplantable tumors. Survival or tumor size were measured and the results are expressed as the measurement made in the treated group (T) divided by the measurement made in the vehicle treated control group (C). The tumor model used in this assay is Friend Virus Leukemia (Solid) (subcutaneous) in B6D2F1 (BDF1) mice
# [1] = dose: 5.0 mg/kg/injection, schedule: Q01DX011 (ip), vehicle: carboxymethylcellulose (CMC)
# [2] = dose: 10.0 mg/kg/injection, schedule: Q01DX011 (ip), vehicle: carboxymethylcellulose (CMC)
# [3] = dose: 20.0 mg/kg/injection, schedule: Q01DX011 (ip), vehicle: carboxymethylcellulose (CMC)
# [4] = dose: 40.0 mg/kg/injection, schedule: Q01DX011 (ip), vehicle: carboxymethylcellulose (CMC)
# [5] = dose: 100.0 mg/kg/injection, schedule: Q01DX011 (ip), vehicle: carboxymethylcellulose (CMC)
structure (smiles),measurement,setting,value
CN(N=O)C(=O)Nc1c[nH]c(=O)[nH]c1=O,T/C,[1],108 % of control
same,T/C,[2],93 % of control
same,T/C,[3],91 % of control
same,T/C,[4],39 % of control
same,T/C,"dose: 60.0 mg/kg/injection, schedule: Q01DX011 (ip), vehicle: carboxymethylcellulose (CMC)",45 % of control
same,T/C,"dose: 80.0 mg/kg/injection, schedule: Q01DX011 (ip), vehicle: carboxymethylcellulose (CMC)",23 % of control
CN1CCC23c4c5ccc(O)c4OC2C(O)C=CC3C1C5 (stereo unspecified),T/C,"dose: 62.0 mg/kg/injection, schedule: Q01DX011 (ip), vehicle: saline",116 % of control
same,T/C,"dose: 125.0 mg/kg/injection, schedule: Q01DX011 (ip), vehicle: saline",172 % of control
same,T/C,"dose: 250.0 mg/kg/injection, schedule: Q01DX011 (ip), vehicle: saline",118 % of control
O=C(COc1cc(Cl)c(Cl)cc1Cl)OCCOc1cc(Cl)c(Cl)cc1Cl,T/C,"dose: 11.25 mg/kg/injection, schedule: Q01DX011 (ip), vehicle: carboxymethylcellulose (CMC)",91 % of control
same,T/C,"dose: 22.5 mg/kg/injection, schedule: Q01DX011 (ip), vehicle: carboxymethylcellulose (CMC)",112 % of control
same,T/C,"dose: 45.0 mg/kg/injection, schedule: Q01DX011 (ip), vehicle: carboxymethylcellulose (CMC)",117 % of control
same,T/C,"dose: 90.0 mg/kg/injection, schedule: Q01DX011 (ip), vehicle: carboxymethylcellulose (CMC)",65 % of control
c1ncc2[nH]cnc2n1,T/C,"dose: 27.5 mg/kg/injection, schedule: Q01DX011 (ip), vehicle: carboxymethylcellulose (CMC)",104 % of control
same,T/C,"dose: 55.0 mg/kg/injection, schedule: Q01DX011 (ip), vehicle: carboxymethylcellulose (CMC)",87 % of control
same,T/C,"dose: 110.0 mg/kg/injection, schedule: Q01DX011 (ip), vehicle: carboxymethylcellulose (CMC)",81 % of control
same,T/C,"dose: 219.0 mg/kg/injection, schedule: Q01DX011 (ip), vehicle: carboxymethylcellulose (CMC)",43 % of control
O=C1C=CC(=Nc2ccc(O)c3ncccc23)c2cccnc21,T/C,"dose: 6.0 mg/kg/injection, schedule: Q01DX011 (ip), vehicle: carboxymethylcellulose (CMC)",71 % of control
same,T/C,"dose: 12.5 mg/kg/injection, schedule: Q01DX011 (ip), vehicle: carboxymethylcellulose (CMC)",84 % of control
CCCCSc1nc(N)nc2c1ncn2CC(C)CC (stereo unspecified),T/C,"dose: 125.0 mg/kg/injection, schedule: Q01DX011 (ip), vehicle: carboxymethylcellulose (CMC)",68 % of control
same,T/C,"dose: 250.0 mg/kg/injection, schedule: Q01DX011 (ip), vehicle: carboxymethylcellulose (CMC)",75 % of control
same,T/C,"dose: 500.0 mg/kg/injection, schedule: Q01DX011 (ip), vehicle: carboxymethylcellulose (CMC)",23 % of control
COc1ccccc1NC(=O)CSC(N)=O,T/C,[5],91 % of control
same,T/C,"dose: 200.0 mg/kg/injection, schedule: Q01DX011 (ip), vehicle: carboxymethylcellulose (CMC)",104 % of control
same,T/C,"dose: 400.0 mg/kg/injection, schedule: Q01DX011 (ip), vehicle: carboxymethylcellulose (CMC)",71 % of control
CN(C)Nc1ncnc2nc[nH]c12,T/C,[1],74 % of control
same,T/C,[2],80 % of control
same,T/C,[3],59 % of control and 65 % of control
same,T/C,[4],17 % of control and 35 % of control
COC(=O)/C=C\C(=O)O (tested in a mixture with another compound),T/C,"dose: 14.0 mg/kg/injection, schedule: Q#A X022 (ip), vehicle: carboxymethylcellulose (CMC)",88 % of control
same,T/C,"dose: 28.0 mg/kg/injection, schedule: Q#A X022 (ip), vehicle: carboxymethylcellulose (CMC)",92 % of control
same,T/C,"dose: 31.0 mg/kg/injection, schedule: Q#A X022 (ip), vehicle: carboxymethylcellulose (CMC)",68 % of control
same,T/C,"dose: 56.0 mg/kg/injection, schedule: Q#A X022 (ip), vehicle: carboxymethylcellulose (CMC)",49 % of control
same,T/C,"dose: 62.5 mg/kg/injection, schedule: Q#A X022 (ip), vehicle: carboxymethylcellulose (CMC)",36 % of control
C[C@]12CCC(=O)C=C1CC[C@@H]1[C@@H]2[C@@H](O)C[C@@]2(C)[C@H]1CC[C@]2(O)C(=O)COC(=O)c1ccc([N+](=O)[O-])cc1Cl,T/C,"dose: 50.0 mg/kg/injection, schedule: Q01DX011 (sc), vehicle: steriod suspending solution",69 % of control
same,T/C,"dose: 100.0 mg/kg/injection, schedule: Q01DX011 (sc), vehicle: steriod suspending solution",58 % of control
same,T/C,"dose: 200.0 mg/kg/injection, schedule: Q01DX011 (sc), vehicle: steriod suspending solution",55 % of control
same,T/C,"dose: 400.0 mg/kg/injection, schedule: Q01DX011 (sc), vehicle: steriod suspending solution",35 % of control
NC(N)=N/N=C/C=N/N=C(N)N,T/C,"dose: 50.0 mg/kg/injection, schedule: Q01DX011 (ip), vehicle: saline",189 % of control
Nc1ncnc2c1ncn2C1CCCO1 (stereo unspecified),T/C,"dose: 50.0 mg/kg/injection, schedule: Q01DX011 (ip), vehicle: carboxymethylcellulose (CMC)",111 % of control
same,T/C,[5],54 % of control
